Data taken from patent US12371454B2, “Cyclic peptide compound having Kras inhibitory action” (priority 2019, dated 2025).
Starred links: 1 amine or outer side, 2 acyl side, 3 side chain; linkers in the order of their positions; H or OH if unused. Positions of bridges follow the written chain, without caps; N, C: chain ends. Non-standard residues stand in square brackets, D forms with d. Residues, ends and D or L forms follow the SMILES beside them. *: point of attachment. hPhe(3-Cl-4-CF3) = N[C@@H](CCc1ccc(C(F)(F)F)c(Cl)c1)C(=O)O; hPhe(3-F,4-CF3) = N[C@@H](CCc1ccc(C(F)(F)F)c(F)c1)C(=O)O; hPhe(4-CF3) = N[C@@H](CCc1ccc(C(F)(F)F)cc1)C(=O)O; NEtPhe(4-Cl) = CCN[C@@H](Cc1ccc(Cl)cc1)C(=O)O; NMePhe(4-Cl) = CN[C@@H](Cc1ccc(Cl)cc1)C(=O)O; NMePhe(2-Cl) = CN[C@@H](Cc1ccccc1Cl)C(=O)O; NMedβ3hAla = C[C@H](CC(=O)[*:2])N(C)[*:1]; NMeGly(cPent) = CN[C@H](C(=O)O)C1CCCC1; Phe(3-I) = N[C@@H](Cc1cccc(I)c1)C(=O)O; NMeCha = CN[C@@H](CC1CCCCC1)C(=O)O; Ala(cPr) = N[C@@H](CC1CC1)C(=O)O; NMeD = CN[C@@H](CC(=O)O)C(=O)O; NMeL = CN[C@@H](CC(C)C)C(=O)O; NMeV = CN[C@H](C(=O)O)C(C)C; d(β3hA) = C[C@@H](N)CC(=O)O; NMeAbu = CC[C@H](NC)C(=O)O; NMeA = CN[C@@H](C)C(=O)O; NMeAib = CNC(C)(C)C(=O)O; Nle = CCCC[C@H](N)C(=O)O; Piperidide = C1CCN(*)CC1; Pyrrolidide = C1CCN(*)C1; dNMeA = CN[C@H](C)C(=O)O; Ac5c = NC1(C(=O)O)CCCC1; Aze = O=C(O)[C@@H]1CCN1; Thp = NC1(C(=O)O)CCOCC1; Aib = CC(C)(N)C(=O)O; NPrGly = CCCNCC(=O)O; Sar = CNCC(=O)O

Each compound was assayed against T1, Kras and SOS1 (biotin-tagged human Kras loaded with GDP, His-tagged human SOS1) (Homo sapiens, UniProt P01116, G12D) (assay: Protein-protein interaction inhibition between Kras and SOS1 (KrasGl2D-SOS PPI) using AlphaScreen). Details: AlphaScreen; biotin-tagged human Kras loaded with GDP, His-tagged human SOS1; read-out: KRAS G12D-SOS PPI IC50.
T1 construct: made in house; host or cells: E. coli (stated for Kras only)
Assay type: binding
Summary of the method: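 Donor beads (nickel) hold His-SOS1; acceptor beads (streptavidin) hold biotin-Kras bound to GDP. Signal measured at 520-620 nm following 680 nm excitation.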

T1 sequence (P01116 1-188 isoform P01116-2 G12D): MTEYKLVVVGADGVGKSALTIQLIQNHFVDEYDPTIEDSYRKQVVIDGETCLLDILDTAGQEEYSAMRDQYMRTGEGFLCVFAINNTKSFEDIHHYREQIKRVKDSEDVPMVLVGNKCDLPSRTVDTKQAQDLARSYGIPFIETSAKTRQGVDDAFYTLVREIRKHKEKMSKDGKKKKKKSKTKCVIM

Compound | IC50 [µM]
CCCN1CC(=O)N(C)[C@@H](CC2CCCCC2)C(=O)N(C)CC(=O)N[C@@H](CCc2ccc(C(F)(F)F)c(Cl)c2)C(=O)N2CCC[C@H]2C(=O)NC2(CCCC2)C(=O)N(C)[C@@H](C(C)C)C(=O)N[C@H](C)CC(=O)N(C)[C@@H](CC(C)C)C(=O)N[C@@H]([C@@H](C)CC)C(=O)N(C)CC1=O [Compound 405] (cyclo([Ac5c][NMeV][d(β3hA)][NMeL]I[Sar][NPrGly][NMeCha][Sar][hPhe(3-Cl-4-CF3)]P)) | 0.27
CC[C@H](C)[C@@H]1NC(=O)[C@H](CC(C)C)N(C)C(=O)C[C@@H](C)N(C)C(=O)[C@H](CC(C)C)N(C)C(=O)C2(CCOCC2)NC(=O)[C@@H]2CCCN2C(=O)[C@H](CCc2ccc(C(F)(F)F)c(F)c2)NC(=O)CN(C)C(=O)[C@H](CC2CCCCC2)N(C)C(=O)CN(C)C(=O)CN(C)C1=O [Compound 407] (cyclo(I[Sar][Sar][NMeCha][Sar][hPhe(3-F,4-CF3)]P[Thp][NMeL][NMedβ3hAla][NMeL])) | 0.039
CC[C@H](C)[C@@H]1NC(=O)[C@H](C)N(C)C(=O)C[C@@H](C)NC(=O)[C@H](C2CCCC2)N(C)C(=O)C2(CCCC2)NC(=O)[C@@H]2CCCN2C(=O)[C@H](CCc2ccc(C(F)(F)F)c(Cl)c2)NC(=O)[C@@H](C)N(C)C(=O)[C@H](CC)N(C)C(=O)CN(C)C(=O)CN(C)C1=O [Compound 413] (cyclo([Ac5c][NMeGly(cPent)][d(β3hA)][NMeA]I[Sar][Sar][NMeAbu][dNMeA][hPhe(3-Cl-4-CF3)]P)) | 0.05
CC[C@H](C)[C@@H]1NC(=O)[C@H](CC(C)C)N(C)C(=O)C[C@@H](C)NC(=O)[C@H](CC(C)C)N(C)C(=O)C2(CCCC2)NC(=O)[C@@H]2CCCN2C(=O)[C@H](CCc2ccc(C(F)(F)F)cc2)NC(=O)CN(C)C(=O)[C@H](CC2CCCCC2)N(C)C(=O)CN(C)C(=O)CN(C)C1=O [Compound 414] (cyclo([Ac5c][NMeL][d(β3hA)][NMeL]I[Sar][Sar][NMeCha][Sar][hPhe(4-CF3)]P)) | 0.11
CC[C@H](C)[C@@H]1NC(=O)[C@H](CC(C)C)N(C)C(=O)C[C@@H](C(=O)N2CCCCC2)NC(=O)[C@H](C(C)C)N(C)C(=O)C2(CCCC2)NC(=O)[C@@H]2CCCN2C(=O)[C@H](CCc2ccc(C(F)(F)F)c(Cl)c2)NC(=O)CN(C)C(=O)[C@H](CC2CCCCC2)N(C)C(=O)CN(C)C(=O)CN(C)C1=O [Compound 417] ([NMeL]I[Sar][Sar][NMeCha][Sar][hPhe(3-Cl-4-CF3)]P[Ac5c][NMeV]D-Piperidide; lactam N-11) | 0.015
CC[C@H](C)[C@@H]1NC(=O)[C@H](C(C)C)N(C)C(=O)C[C@@H](C)NC(=O)[C@H](CC(C)C)N(C)C(=O)C2(CCCC2)NC(=O)[C@H](CC(C)C)N(C)C(=O)[C@H](CCc2ccc(C(F)(F)F)c(F)c2)NC(=O)CN(C)C(=O)[C@H](Cc2ccc(Cl)cc2)N(C)C(=O)[C@@H]2CCN2C(=O)CN(C)C1=O [Compound 418] (cyclo([Ac5c][NMeL][d(β3hA)][NMeV]I[Sar][Aze][NMePhe(4-Cl)][Sar][hPhe(3-F,4-CF3)][NMeL])) | 0.017
CC(C)C[C@H]1C(=O)N[C@@H](CC2CC2)C(=O)N(C)CC(=O)N(C)CC(=O)N(C)[C@@H](CC2CCCCC2)C(=O)N(C)CC(=O)N[C@@H](CCc2ccc(C(F)(F)F)c(Cl)c2)C(=O)N2CCC[C@H]2C(=O)NC2(CCCC2)C(=O)N(C)[C@@H](C(C)C)C(=O)N(C)[C@H](C(=O)N2CCCCC2)CC(=O)N1C [Compound 421] ([NMeL][Ala(cPr)][Sar][Sar][NMeCha][Sar][hPhe(3-Cl-4-CF3)]P[Ac5c][NMeV][NMeD]-Piperidide; lactam N-11) | 0.01
CCCC[C@@H]1NC(=O)[C@H](Cc2cccc(I)c2)NC(=O)CN(C)C(=O)[C@H](Cc2ccc(Cl)cc2)N(CC)C(=O)CN(C)C(=O)CN(C)C(=O)[C@H]([C@@H](C)CC)NC(=O)[C@H](CC(C)C)N(C)C(=O)C[C@@H](C(=O)N2CCCCC2)N(C)C(=O)[C@H](CC(C)C)NC(=O)C(C)(C)N(C)C1=O [Compound 423] ([NMeL]I[Sar][Sar][NEtPhe(4-Cl)][Sar][Phe(3-I)][Nle][NMeAib]L[NMeD]-Piperidide; lactam N-11) | 0.064
CC[C@H](C)[C@@H]1NC(=O)[C@H](C)N(C)C(=O)C[C@@H](C(=O)N2CCCC2)N(C)C(=O)[C@H](C(C)C)N(C)C(=O)C(C)(C)NC(=O)[C@H](Cc2ccccc2Cl)N(C)C(=O)[C@H](CCc2ccc(C(F)(F)F)c(Cl)c2)NC(=O)CN(C)C(=O)[C@H](CC2CCCCC2)N(C)C(=O)CN(C)C(=O)CN(C)C1=O [Compound 426] ([NMeA]I[Sar][Sar][NMeCha][Sar][hPhe(3-Cl-4-CF3)][NMePhe(2-Cl)][Aib][NMeV][NMeD]-Pyrrolidide; lactam N-11) | 0.0087
